# Data reported in patent US8178506B2, “Oligomeric compounds and compositions for use in modulation of small non-coding RNAs” (Regulus Therapeutics Inc., priority 2003, dated 2012).
# In the oligonucleotide strings, read from the 5' end, every base follows the letter of its sugar. An asterisk marks phosphorothioate; unmarked linkages are phosphodiester. Other units and linkages are bracketed, terminal groups are in braces. A string of capitals states the bases alone. e = 2'-O-(2-methoxyethyl) (MOE); [5mC] = 5-methylcytosine
# Columns and labels:
# [1] = test system: PPARγ; assay: PPARγ mRNA expression in adipocytes (real-time PCR); format: cell-based, human; details: for PPAR gamma mRNA: differentiating adipocytes transfected with oligomeric compound; for PPAR gamma (mRNA expression): adipocytes, 250 nM oligomeric compound, day nine post-transfection, relative to control (1.0)
# [2] = test system: HuVECs; assay: Endothelial tube formation assay in HuVECs; details: 75 nM oligomeric compound, Table 59
# [3] = test system: HSL; assay: HSL mRNA expression in adipocytes (real-time PCR); format: cell-based, human; details: for HSL mRNA: differentiating adipocytes transfected with oligomeric compound; for HSL (mRNA expression): adipocytes, 250 nM oligomeric compound, day nine post-transfection, relative to control (1.0)
# [4] = test system: Glut4; assay: Glut4 mRNA expression in adipocytes (real-time PCR); format: cell-based, human; details: for GLUT4 mRNA: differentiating adipocytes transfected with oligomeric compound; for Glut4 (mRNA expression): adipocytes, 250 nM oligomeric compound, day nine post-transfection, relative to control (1.0)
# [5] = test system: aP2; assay: aP2 mRNA expression in adipocytes (real-time PCR); format: cell-based, human; details: for AP2 mRNA: differentiating adipocytes transfected with oligomeric compound; for AP2 (mRNA expression): adipocytes, 250 nM oligomeric compound, day nine post-transfection, relative to control (1.0)
# [6] = test system: adipocytes; assay: Triglyceride accumulation assay in adipocytes; format: cell-based, human
# [7] = differentiating adipocytes transfected with oligomeric compound
Substance,PPAR gamma mRNA [1],% Activity Relative to UTC (tube formation) [2] [%],HSL mRNA [3],GLUT4 mRNA [4],AP2 mRNA [5],"TG (triglyceride accumulation) [6, 7]",PPAR gamma (mRNA expression) ([1]; Table 15),HSL (mRNA expression) ([3]; Table 15),Glut4 (mRNA expression) ([4]; Table 15),AP2 (mRNA expression) ([5]; Table 15),"TG (triglyceride accumulation) ([6]; adipocytes, 250 nM oligomeric compound, relative to control (1.0), Table 15)",PPAR gamma (mRNA expression) ([1]; Table 16),HSL (mRNA expression) ([3]; Table 16),Glut4 (mRNA expression) ([4]; Table 16),AP2 (mRNA expression) ([5]; Table 16),"TG (triglyceride accumulation) ([6]; adipocytes, 250 nM oligomeric compound, relative to control (1.0), Table 16)"
327951 (antisense e[5mC]*eA*e[5mC]*eA*eA*eA*e[5mC]*e[5mC]*eA*eT*eT*eA*eT*eG*eT*eG*e[5mC]*eT*eG*e[5mC]*eT*eA) [compound 327951],84 percentage of untreated control (UTC),73.3,100 percentage of untreated control (UTC),81 percentage of untreated control (UTC),91 percentage of untreated control (UTC),76 percentage of untreated control (UTC),–,–,–,–,–,–,–,–,–,–
327954 (antisense eA*e[5mC]*eA*eA*eA*eG*eT*eT*e[5mC]*eT*eG*eT*eG*eA*eT*eG*e[5mC]*eA*e[5mC]*eT*eG*eA) [compound 327954],–,53.3,–,–,–,–,0.73,1.03,0.92,0.95,0.58,–,–,–,–,–
327956 (antisense e[5mC]*eA*e[5mC]*eA*eG*eT*eT*eG*e[5mC]*e[5mC]*eA*eG*e[5mC]*eT*eG*eA*eG*eA*eT*eT*eA) [compound 327956],91 percentage of untreated control (UTC),46.7,90 percentage of untreated control (UTC),69 percentage of untreated control (UTC),102 percentage of untreated control (UTC),80 percentage of untreated control (UTC),–,–,–,–,–,–,–,–,–,–
327967 (antisense eA*e[5mC]*eT*eG*eT*eA*e[5mC]*eA*eA*eA*e[5mC]*eT*eA*e[5mC]*eT*eA*e[5mC]*e[5mC]*eT*e[5mC]*eA) [compound 327967],–,93.3,–,–,–,–,–,–,–,–,–,0.89,0.97,0.56,0.86,0.90
